Assay: Canine pyruvate study blood chemistry
Assay type: in vivo
Details: dogs fed pyruvate compared to similar foods containing fish oil
From the text: 40 dogs were fed a control food for 28 days prior to start of the study. At day 0, dogs were allotted to one of three experimental foods, control+fish oil, control+pyruvate, or control+fish oil and pyruvate. Dogs were fed the experimental foods for 45 days. [table]

In the case of `CC(=O)C(=O)O` [pyruvate, calcium pyruvate], the blood urea nitrogen is reported as “reduced” and the creatinine is reported as “reduced”.

Source: patent US9173422B2, “Compositions including pyruvate for companion animals and methods of use thereof” (Hill's Pet Nutrition, Inc., priority 2009, dated 2015)
